# Experimental data from PMC3176662 (Journal of biomolecular screening, 2011).
# Columns and labels:
# [1] = target: T1, Francisella tularensis GyrB (ATP binding domain) (Francisella tularensis subsp. tularensis, UniProt Q5NHE7); assay: biochemical
# [2] = target: E. coli gyrase A2B2 heterotetramer (Escherichia coli, UniProt P0AES6); assay: Gyrase activity; format: biochemical; settings: 50 μM compound, 0.5 μg relaxed pHOT1 DNA, 1 h 37 °C
# [3] = target: T1, Francisella tularensis GyrB (ATP binding domain); assay: biochemical; settings: 1 h, read-out: decrease of binding of Novo-TRX to GyrB
# T1 sequence (Q5NHE7 1-805): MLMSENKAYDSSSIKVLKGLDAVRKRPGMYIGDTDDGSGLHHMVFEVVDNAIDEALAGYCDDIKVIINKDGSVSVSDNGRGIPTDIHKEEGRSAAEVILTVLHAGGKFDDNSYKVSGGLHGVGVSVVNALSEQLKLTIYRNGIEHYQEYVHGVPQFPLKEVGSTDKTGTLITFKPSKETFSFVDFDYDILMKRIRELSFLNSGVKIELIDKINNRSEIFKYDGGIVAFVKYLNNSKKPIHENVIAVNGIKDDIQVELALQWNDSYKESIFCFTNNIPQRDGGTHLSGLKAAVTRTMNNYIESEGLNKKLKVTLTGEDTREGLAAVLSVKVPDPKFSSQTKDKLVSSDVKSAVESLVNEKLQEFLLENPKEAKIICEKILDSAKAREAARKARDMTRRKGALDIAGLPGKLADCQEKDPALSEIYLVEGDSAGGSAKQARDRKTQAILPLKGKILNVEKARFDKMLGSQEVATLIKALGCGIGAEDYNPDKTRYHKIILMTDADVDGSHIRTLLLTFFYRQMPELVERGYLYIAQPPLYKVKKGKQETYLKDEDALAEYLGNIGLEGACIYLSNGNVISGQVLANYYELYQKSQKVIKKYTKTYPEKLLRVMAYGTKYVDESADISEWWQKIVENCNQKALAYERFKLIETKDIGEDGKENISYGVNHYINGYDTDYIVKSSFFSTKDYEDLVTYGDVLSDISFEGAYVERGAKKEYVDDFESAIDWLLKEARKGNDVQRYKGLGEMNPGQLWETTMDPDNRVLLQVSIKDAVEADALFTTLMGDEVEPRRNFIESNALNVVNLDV
smiles,measurement,setting,value
COc1cccc2c1C(=O)c1c(O)c3c(c(O)c1C2=O)C[C@@](O)(C(C)=O)C[C@@H]3O[C@H]1C[C@H](N)[C@H](O)[C@H](C)O1 [daunorubicin],IC50,[1],1.46 µM
same,inhibition of supercoiling of relaxed DNA,[2],less clear
COc1cccc2c1C(=O)c1c(O)c3c(c(O)c1C2=O)C[C@@](O)(C(=O)CO)C[C@@H]3O[C@H]1C[C@H](N)[C@@H](O)[C@H](C)O1 [epirubicin],IC50,[1],1.27 µM
same,inhibition of supercoiling of relaxed DNA,[2],inhibit supercoiling to the level of the no-gyrase control
CO[C@@H]1[C@@H](OC(N)=O)[C@@H](O)[C@H](Oc2ccc3c(O)c(NC(=O)c4ccc(O)c(CC=C(C)C)c4)c(=O)oc3c2C)OC1(C)C [novobiocin],inhibition at 10 µM,[3],> 40%
COc1cccc2c1C(=O)c1c(O)c3c(c(O)c1C2=O)C[C@@](O)(C(=O)CO)C[C@@H]3O[C@H]1C[C@H](N)[C@H](O)[C@H](C)O1 [doxorubicin],IC50,[1],0.31 µM
same,inhibition of supercoiling of relaxed DNA,[2],inhibit supercoiling to the level of the no-gyrase control
"CCNC(=O)Nc1nc2cc(-c3cccnc3)cc(-c3ccccn3)c2[nH]1 [Vertex-13, N-ethyl-N′-[7-(2-pyridinyl)-5-(3-pyridinyl)-1H-benzimidazol-2-yl]-urea]",IC50,[1],0.393 µM
same,potency relative to novobiocin in the F. tularensis system (fold less potent),[1],approximately 10 fold
CC(=O)[C@]1(O)Cc2c(O)c3c(c(O)c2[C@@H](O[C@H]2C[C@H](N)[C@H](O)[C@H](C)O2)C1)C(=O)c1ccccc1C3=O [idarubicin],IC50,[1],1.58 µM
same,inhibition of supercoiling of relaxed DNA,[2],less clear
